Results as given in patent publication EP4671258A1, “RADIOACTIVE LABEL OF RISEDRONIC ACID DERIVATIVE, AND PRECURSOR COMPOUND THEREOF, AND PREPARATION METHOD THEREFOR AND USE THEREOF” (The Affiliated Hospital of Southwest Medical University, priority 2023, dated 2024).

System: tumor-bearing mice
Assay: Comparative PET/CT imaging experiment in tumor-bearing mice (Test Example 2)
Assay type: in vivo, nude mice
Conditions: PET/CT whole-body imaging 2 hours after tail vein injection of about 0.1 ml (1 mCi/ml); MDA-MB-231 bone metastasis model
Description: In this test example, the PET/CT imaging experiment of the ^68Ga-labeled compound represented by Formula II-1 of the present disclosure in tumor-bearing mice was disclosed. • (1) Establishment of tumor-bearing mouse model: 12 SPF female nude mice were prepared. After isoflurane anesthesia, the skin around the left knee joint was disinfected. The left hind limb was bent and an insulin needle (29G needle) was used to insert vertically into the femur from the concave point of the femoral head joint fossa. The needle was slowly rotated into the bone marrow cavity and 25µl (containing about 2×10^6 cells) of MDA-MB-231 (human breast cancer cells, from ATCC) cell culture medium was injected. After disinfection, the hole was sealed with sterile bone wax, and the animal was placed on a 37°C hot plate to rewarm. After recovery, it was returned to the cage for continued feeding. • (2) Verification of tumor-bearing mouse model: 4 weeks after inoculation, 12 nude mice were scanned using Micro-CT respectively.
In this test example, a comparative PET/CT imaging experiment of the ^68Ga-labeled compound represented by Formula II-1 of the present disclosure and ^68Ga-DOTA-ibandronic acid in tumor-bearing mice was disclosed. The ^68Ga-DOTA-ibandronic acid was prepared according to the method No.5 in Table 1 in the description of the published Chinese patent application with application number 202111419244.X.
Four successfully modeled tumor-bearing mice were taken, in which two mice were injected with about 0.1 ml of the freshly prepared ^68Ga-labeled compound represented by Formula II-1 (with a concentration of 1 mCi/ml) via the tail vein, and the other two mice were injected with about 0.1 ml of the freshly prepared ^68Ga-DOTA-ibandronic acid (with a concentration of 1 mCi/ml) via the tail vein. PET/CT whole-body imaging was performed 2 hours after injection.
The T/N value was calculated according to the following formula: T/N value = SUVmax of lesion/SUVmax of background tissue [formula] Table 1: Imaging results of tumor-bearing mice

Head SUVmax: 0.783
Head SUVmin: 0.230
Lesion SUVmax: 0.647
Lesion SUVmin: 0.139
Liver SUVmax: 0.067
Liver SUVmin: 0.046
Substance: ^68Ga-DOTA-ibandronic acid
